Where two headings read alike, the source gives them in different places.
Experiments:
Format in all cases: cell-based
[1] = tested on: HL60 leukemia cell line; assay: MTS assay (CellTiter96 Aqueous One solution proliferation assay), HL60; settings: Table IA, read-out: IC50 ± standard deviation
Experimental: (§1) Compounds CPF203, CPF204, CPF194, CPF210, CPF211, CPF212, CPF218 and CPT2001 were each tested in leukaemic cell lines to assess their anti-cancer efficacy. The compounds were tested using the MTS assay reagents from Promega (CellTiter96 Aqueous One solution proliferation assay). The compounds were tested between 10 μM and 0.002 μM in four fold dilutions.
(§2) The cell lines employed are set out in Tables IA and IB below and are NB4, HL60, NB4R2, K562, KG1, and U937 leukemia cell lines.
(§3) Table IA gives the IC50±standard deviation value for each cell line and compound tested and for all the cell lines together, in μM. Included in Table IA below, as a comparative example, is corresponding cell line data for cladribine. Table IB gives the IC50 value for each cell line and compound tested. Included in Table IB below, as a comparative example, is corresponding cell line data for clofarabine.

[2] = tested on: NB4 leukemia cell line; assay: MTS assay (CellTiter96 Aqueous One solution proliferation assay), NB4
Experimental: as §1, §2, §3

[3] = tested on: leukaemic cell lines; assay: MTS assay, all the cell lines together; settings: for IC50: All lines, Table IA, read-out: IC50 ± standard deviation, all the cell lines together; for anti-leukaemic potency/activity (in words): data of Table IA
Experimental: as §1, §2, §3

[4] = tested on: NB4R2 leukemia cell line; assay: MTS assay (CellTiter96 Aqueous One solution proliferation assay), NB4R2; settings: Table IA, read-out: IC50 ± standard deviation
Experimental: as §1, §2, §3

[5] = tested on: KG1 leukemia cell line; assay: MTS assay (CellTiter96 Aqueous One solution proliferation assay), KG1; settings: Table IA, read-out: IC50 ± standard deviation
Experimental: as §1, §2, §3

[6] = tested on: U937 leukemia cell line; assay: MTS assay (CellTiter96 Aqueous One solution proliferation assay), U937
Experimental: as §1, §2, §3

[7] = tested on: K562 leukemia cell line; assay: MTS assay (CellTiter96 Aqueous One solution proliferation assay), K562; settings: Table IA, read-out: IC50 ± standard deviation
Experimental: as §1, §2, §3

[8] = NB4, Table IA, read-out: IC50 ± standard deviation
[9] = U937, Table IA, read-out: IC50 ± standard deviation

2-chloro-2′-deoxyadenosine-5′-[phenyl-(methoxy-L-alaninyl)]-phosphate [CPF203]
IC50 [1]: 6230 ± 1750 nM | IC50 [2, 8]: 1160 ± 40 nM | IC50 [3]: 2640 ± 2090 nM | IC50 [4]: 2280 ± 590 nM | IC50 [5]: 2230 ± 690 nM | IC50 [6, 9]: 1290 ± 910 nM

C[C@H](NP(=O)(OC[C@H]1O[C@@H](n2cnc3c(Cl)nc(N)nc32)C[C@@H]1O)Oc1ccccc1)C(=O)OCc1ccccc1 (stereo partly drawn) [CPF194, 2-amino-6-chloropurine-2′-deoxyriboside-5′-[phenyl-(benzoxy-L-alaninyl)]-phosphate]
IC50 [3]: 2640 ± 180 nM | anti-leukaemic potency/activity (in words) [3]: anti-leukaemic activity demonstrated | IC50 [5]: 2640 ± 180 nM

C[C@H](NP(=O)(OC[C@H]1O[C@@H](n2cnc3c(N)nc(Cl)nc32)C[C@@H]1O)Oc1ccccc1)C(=O)OCc1ccccc1 (stereo partly drawn) [CPF204, 2-chloro-2′-deoxyadenosine-5′-[phenyl-(benzoxy-L-alaninyl)]-phosphate]
IC50 [1]: 1750 ± 890 nM | IC50 [2, 8]: 230 ± 100 nM | IC50 [3]: 670 ± 700 nM | IC50 [4]: 630 ± 40 nM | IC50 [5]: 670 ± 200 nM | IC50 [6, 9]: 80 ± 10 nM

C[C@H](NP(=O)(OC[C@H]1O[C@@H](n2cnc3c(N)nc(Cl)nc32)C[C@@H]1O)Oc1cccc2ccccc12)C(=O)OCc1ccccc1 (stereo partly drawn) [CPF210, 2-chloro-2′-deoxyadenosine-5′-[1-naphthyl-(benzoxy-L-alaninyl)]-phosphate]
IC50 [1]: 650 ± 190 nM | IC50 [2, 8]: 240 ± 110 nM | IC50 [3]: 1040 ± 1020 nM | anti-leukaemic potency/activity (in words) [3]: greater anti-leukaemic potency than the corresponding compound CPF203 | IC50 [4]: 1030 ± 150 nM | IC50 [5]: 1800 ± 720 nM | IC50 [7]: 2.36 ± 1.57 µM | IC50 [6, 9]: 190 ± 90 nM

C[C@H](NP(=O)(OC[C@H]1O[C@@H](n2cnc3c(N)nc(Cl)nc32)C[C@@H]1O)Oc1cccc2ccccc12)C(=O)OCc1ccccc1 (stereo partly drawn) [CPF211, 2-chloro-2′-deoxyadenosine-5′-[1-naphthyl-(benzoxy-L-alaninyl)]-phosphate]
IC50 [1]: 1660 ± 240 nM | IC50 [2, 8]: 430 ± 40 nM | IC50 [3]: 1410 ± 1090 nM | IC50 [4]: 1180 ± 210 nM | IC50 [5]: 2630 ± 1190 nM | IC50 [7]: 2.28 ± 1.32 µM | IC50 [6, 9]: 280 ± 30 nM

C[C@H](NP(=O)(OC[C@H]1O[C@@H](n2cnc3c(N)nc(Cl)nc32)C[C@@H]1O)Oc1cccc2ccccc12)C(=O)OCc1ccccc1 (stereo partly drawn) [CPF212, 2-chloro-2′-deoxyadenosine-5′-[1-naphthyl-(benzoxy-L-alaninyl)]-phosphate]
IC50 [1]: 1780 ± 500 nM | IC50 [2, 8]: 230 ± 40 nM | IC50 [3]: 1750 ± 2340 nM | IC50 [4]: 1010 ± 390 nM | IC50 [5]: 1540 ± 440 nM | IC50 [7]: 5.8 ± 3.6 µM | IC50 [6, 9]: 140 ± 150 nM

C[C@H](NP(=O)(OC[C@H]1O[C@@H](n2cnc3c(N)nc(Cl)nc32)C[C@@H]1O)Oc1ccc(Cl)c2ccccc12)C(=O)OCc1ccccc1 (stereo partly drawn) [CPF218, 2-chloro-2′-deoxyadenosine-5′-[4-chloro-1-naphthyl-(benzoxy-L-alaninyl)]-phosphate]
IC50 [1]: 1750 ± 760 nM | IC50 [2, 8]: 270 ± 30 nM | IC50 [3]: 1600 ± 1470 nM | IC50 [4]: 1090 ± 40 nM | IC50 [5]: 1560 ± 250 nM | IC50 [7]: 4.41 ± 0.95 µM | IC50 [6, 9]: 550 ± 440 nM

C[C@@H](NP(=O)(OCC1OC(n2cnc3c(N)nc(Cl)nc32)C(F)C1O)Oc1ccccc1)C(=O)OCc1ccccc1 (stereo partly shown) [CPT2001]
IC50 [2]: 120 nM | anti-cancer activity compared to clofarabine ([3]; data of Table IB (NB4, U937)): enhanced anti-cancer activity compared to clofarabine | IC50 ([6]; Homo sapiens, U-937): 80 nM

Nc1nc(Cl)nc2c1ncn2[C@H]1C[C@H](O)[C@@H](CO)O1 [Cladribine, reference compound]
IC50 [1]: 10300 ± 3460 nM | IC50 [2, 8]: 9390 ± 4250 nM | IC50 [3]: 7210 ± 3690 nM | IC50 [4]: 7810 ± 1640 nM | IC50 [5]: 5480 ± 1860 nM | IC50 [6, 9]: 2080 ± 2750 nM

Nc1nc(Cl)nc2c1ncn2[C@@H]1O[C@H](CO)[C@@H](O)[C@@H]1F [Clofarabine, reference compound]
IC50 ([2]; NB4, Table IB, read-out: IC50): 200 nM | IC50 ([6]; U937, Table IB, read-out: IC50): 260 nM

Source: patent publication US8263575B2, “Phosphoramidate derivatives of nucleoside compounds for use in the treatment of cancer” (Nucana Biomed Limited, priority 2005, dated 2012)
